Measured values as given in patent publication US11161817B2, “Quinoline derivative and use thereof as tyrosine kinase inhibitor” (CHONGQING PHARMACEUTICAL INDUSTRIAL RESEARCH INSTITUTE CO. …, priority 2017, dated 2021).
Like-named read-outs stand apart in the source and are kept apart here. Values belong to the compound of their own block, whether it stands above or below them.

Experiments:
[1] = Pharmacokinetic evaluation in rats, intravenous and oral administration; type: in vivo, SD rats; settings: for time to peak concentration / AUC(0-t) / bioavailability / Cmax: male SD rats, intragastric, 5 mg/kg, single; for AUC(0-t) / bioavailability / Cmax: rat, plasma, po; for Cmax: read-out: peak concentration (Cmax)
Procedure: Experimental objective: evaluation of the oral absorption in animals of the product of Embodiment 1 by intravenous and oral administration in rats
Experimental materials: male, SD rats, EDTA-K2
0.5 mg/mL of the test compound suspended in 0.5% Methocel/0.2% Tween 80 was administered intragastrically to male SD rats (overnight fasting, 7-11 week-age) at a dose of 5 mg/kg. About 30 μL blood was collected from the jugular or caudal vein of each animal in the two groups at 0.25, 0.5, 1.0, 2.0, 4.0, 8.0, and 24 hours after administration, added into anticoagulated tubes containing EDTA-K2, and the mixture was centrifuged to obtain the plasma. LC-MS/MS method was used to determine the drug concentration in blood, and WinNonlin™ Version 6.3 (Pharsight, Mountain View, Calif.) pharmacokinetic software was used to calculate the relevant pharmacokinetic parameters by non-compartment model logarithmic trapezoidal method.

[2] = as above; type: in vivo, SD rats; settings: for Vd / AUC(0-t) / half-life / clearance: rat, plasma, male SD rats, intravenous injection, 1.0 mg/kg, single; for Vd: read-out: apparent volume of distribution at steady state (Vdss); for AUC(0-t): read-out: area under the plasma concentration-time curve (AUC0-last); for half-life: read-out: elimination half-life (T1/2) (converted); for clearance: read-out: plasma clearance (CL)
c-Met = c-Met (Homo sapiens, UniProt P08581); test: In vitro kinase activity test, c-Met
Procedure: (§1) Protein kinase with a corresponding enzyme concentration of X (shown in table 1), peptide substrate with a concentration of Y, ATP with a specific concentration, 8 mM MOPS (pH 7.0), and 10 mM MgCl2 were added. The detection plate was P30 filtermat, and the reaction was performed at room temperature for T minutes, and the reaction system was 10 μL.
(§2) The reaction was terminated by adding 0.5% phosphoric acid to the kinase reaction solution, and the plate was read by an Envision instrument.
(§3) The data were converted into phosphorylation rate and inhibition rate, and subjected to parameter curve-fitting (GraphPad Software) to obtain IC50 data of the compounds.

Lck(h) = Lck(h) (Homo sapiens, UniProt P06239); test: In vitro kinase activity test, Lck(h)
Procedure: as §1, §2, §3

TNIK(h) = TNIK(h) (Homo sapiens, UniProt Q9UKE5); test: In vitro kinase activity test, TNIK(h)
Procedure: as §1, §2, §3

Flt1(h) = Flt1(h) (Homo sapiens, UniProt P17948); test: In vitro kinase activity test, Flt1(h)
Procedure: as §1, §2, §3

Flt4(h) = Flt4(h) (Homo sapiens, UniProt P35916); test: In vitro kinase activity test, Flt4(h)
Procedure: as §1, §2, §3

MINK(h) = MINK(h) (Homo sapiens, UniProt Q8N4C8); test: In vitro kinase activity test, MINK(h)
Procedure: as §1, §2, §3

cKit(h) = cKit(h) (Homo sapiens, UniProt P10721); test: In vitro kinase activity test, cKit(h)
Procedure: as §1, §2, §3

FGFR1(h) = FGFR1(h) (Homo sapiens, UniProt P11362); test: In vitro kinase activity test, FGFR1(h)
Procedure: as §1, §2, §3

FGFR2(h) = FGFR2(h) (Homo sapiens, UniProt P21802); test: In vitro kinase activity test, FGFR2(h)
Procedure: as §1, §2, §3

FGFR3(h) = FGFR3(h) (Homo sapiens, UniProt P22607); test: In vitro kinase activity test, FGFR3(h)
Procedure: as §1, §2, §3

FGFR4(h) = FGFR4(h) (Homo sapiens, UniProt P22455); test: In vitro kinase activity test, FGFR4(h)
Procedure: as §1, §2, §3

PDGFRβ(h) = PDGFRβ(h) (Homo sapiens, UniProt P09619); test: In vitro kinase activity test, PDGFRβ(h)
Procedure: as §1, §2, §3

cKit(V560G)(h) = cKit(V560G)(h) (Homo sapiens, UniProt P10721, V560G); test: In vitro kinase activity test, cKit(V560G)(h)
Procedure: as §1, §2, §3

KDR(h) = KDR(h) (Homo sapiens, UniProt P35968); test: In vitro kinase activity test, KDR(h)
Procedure: as §1, §2, §3

Aurora-A(h) = molecular target: T1, Aurora-A(h) (Homo sapiens, UniProt O14965); test: In vitro kinase activity test, Aurora-A(h)
T1 sequence (O14965 1-403): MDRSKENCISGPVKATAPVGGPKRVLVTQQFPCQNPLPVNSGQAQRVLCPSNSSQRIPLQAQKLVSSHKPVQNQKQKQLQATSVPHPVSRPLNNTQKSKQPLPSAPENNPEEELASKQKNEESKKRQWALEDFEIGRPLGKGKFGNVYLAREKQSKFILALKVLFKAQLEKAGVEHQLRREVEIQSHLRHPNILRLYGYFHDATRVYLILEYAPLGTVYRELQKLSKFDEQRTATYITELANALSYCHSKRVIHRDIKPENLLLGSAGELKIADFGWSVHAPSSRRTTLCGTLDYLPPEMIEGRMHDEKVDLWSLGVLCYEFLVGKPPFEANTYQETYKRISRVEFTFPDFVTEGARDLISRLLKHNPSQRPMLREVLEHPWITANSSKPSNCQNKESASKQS
Procedure: as §1, §2, §3

Abl(h) = Abl(h) (Homo sapiens, UniProt P00519); test: In vitro kinase activity test, Abl(h)
Procedure: as §1, §2, §3

PDGFRα(h) = PDGFRα(h) (Homo sapiens, UniProt P16234); test: In vitro kinase activity test, PDGFRα(h)
Procedure: as §1, §2, §3

[3] = Pharmacokinetic evaluation in mice, intravenous and oral administration; type: in vivo; settings: male Balb/c nude mice, single
Procedure: Experimental objective: evaluation of the oral absorption in animals of the product of Embodiment 1 by intravenous and oral administration in mice
Experimental materials: Balb/c nude mice, EDTA-K2
Experimental procedure: 0.5 mg/mL 5% DMSO/95% (10% HP-β-CD) clear solution of the product of Embodiment 1 was injected intravenously into male Balb/c nude mice (overnight fasting, 7-9 week-age) via caudal vein at a dose of 1 mg/kg. 0.5 mg/mL test compound suspended in 0.5% Methocel/0.2% Tween 80 was administered intragastrically to male Balb/c nude mice (overnight fasting, 7-9 week-age) at a dose of 5 mg/kg. About 30 μL blood was collected from the jugular or caudal vein of each animal in the two groups at 0.25, 0.5, 1.0, 2.0, 4.0, 8.0 and 24 hours after administration, added into anticoagulated tubes containing EDTA-K2, and the mixture was centrifuged to obtain the plasma. LC-MS/MS method was used to determine the drug concentration in blood, and WinNonlin™ Version 6.3 (Pharsight, Mountain View, Calif.) pharmacokinetic software was used to calculate the relevant pharmacokinetic parameters by non-compartment model logarithmic trapezoidal method.

[4] = c-Met kinase activity IC50, Table 3, value 45.6 is from the second test (Note 1)
[5] = rats, intravenous administration

Sequence of FGFR2(h) (P21802 22-821): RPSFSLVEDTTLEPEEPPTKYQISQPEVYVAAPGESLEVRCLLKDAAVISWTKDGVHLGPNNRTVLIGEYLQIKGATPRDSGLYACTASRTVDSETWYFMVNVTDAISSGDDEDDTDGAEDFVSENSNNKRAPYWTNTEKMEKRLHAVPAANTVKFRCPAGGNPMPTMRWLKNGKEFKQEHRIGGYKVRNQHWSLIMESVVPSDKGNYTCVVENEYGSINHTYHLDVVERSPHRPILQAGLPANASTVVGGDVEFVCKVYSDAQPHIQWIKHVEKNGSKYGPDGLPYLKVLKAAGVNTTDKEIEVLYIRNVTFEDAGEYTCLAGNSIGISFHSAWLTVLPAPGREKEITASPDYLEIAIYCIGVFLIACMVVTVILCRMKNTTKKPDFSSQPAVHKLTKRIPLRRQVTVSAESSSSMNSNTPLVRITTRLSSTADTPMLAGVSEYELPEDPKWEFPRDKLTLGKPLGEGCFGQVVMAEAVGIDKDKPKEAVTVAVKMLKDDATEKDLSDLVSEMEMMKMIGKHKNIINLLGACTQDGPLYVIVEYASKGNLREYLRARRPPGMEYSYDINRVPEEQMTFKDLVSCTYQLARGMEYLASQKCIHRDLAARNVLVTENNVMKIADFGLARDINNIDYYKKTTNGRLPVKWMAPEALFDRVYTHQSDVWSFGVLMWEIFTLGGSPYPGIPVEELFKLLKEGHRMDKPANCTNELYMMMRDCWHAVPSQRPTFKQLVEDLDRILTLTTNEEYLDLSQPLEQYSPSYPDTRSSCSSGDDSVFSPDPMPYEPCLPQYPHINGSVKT
Sequence of MINK(h) (Q8N4C8 whole entry): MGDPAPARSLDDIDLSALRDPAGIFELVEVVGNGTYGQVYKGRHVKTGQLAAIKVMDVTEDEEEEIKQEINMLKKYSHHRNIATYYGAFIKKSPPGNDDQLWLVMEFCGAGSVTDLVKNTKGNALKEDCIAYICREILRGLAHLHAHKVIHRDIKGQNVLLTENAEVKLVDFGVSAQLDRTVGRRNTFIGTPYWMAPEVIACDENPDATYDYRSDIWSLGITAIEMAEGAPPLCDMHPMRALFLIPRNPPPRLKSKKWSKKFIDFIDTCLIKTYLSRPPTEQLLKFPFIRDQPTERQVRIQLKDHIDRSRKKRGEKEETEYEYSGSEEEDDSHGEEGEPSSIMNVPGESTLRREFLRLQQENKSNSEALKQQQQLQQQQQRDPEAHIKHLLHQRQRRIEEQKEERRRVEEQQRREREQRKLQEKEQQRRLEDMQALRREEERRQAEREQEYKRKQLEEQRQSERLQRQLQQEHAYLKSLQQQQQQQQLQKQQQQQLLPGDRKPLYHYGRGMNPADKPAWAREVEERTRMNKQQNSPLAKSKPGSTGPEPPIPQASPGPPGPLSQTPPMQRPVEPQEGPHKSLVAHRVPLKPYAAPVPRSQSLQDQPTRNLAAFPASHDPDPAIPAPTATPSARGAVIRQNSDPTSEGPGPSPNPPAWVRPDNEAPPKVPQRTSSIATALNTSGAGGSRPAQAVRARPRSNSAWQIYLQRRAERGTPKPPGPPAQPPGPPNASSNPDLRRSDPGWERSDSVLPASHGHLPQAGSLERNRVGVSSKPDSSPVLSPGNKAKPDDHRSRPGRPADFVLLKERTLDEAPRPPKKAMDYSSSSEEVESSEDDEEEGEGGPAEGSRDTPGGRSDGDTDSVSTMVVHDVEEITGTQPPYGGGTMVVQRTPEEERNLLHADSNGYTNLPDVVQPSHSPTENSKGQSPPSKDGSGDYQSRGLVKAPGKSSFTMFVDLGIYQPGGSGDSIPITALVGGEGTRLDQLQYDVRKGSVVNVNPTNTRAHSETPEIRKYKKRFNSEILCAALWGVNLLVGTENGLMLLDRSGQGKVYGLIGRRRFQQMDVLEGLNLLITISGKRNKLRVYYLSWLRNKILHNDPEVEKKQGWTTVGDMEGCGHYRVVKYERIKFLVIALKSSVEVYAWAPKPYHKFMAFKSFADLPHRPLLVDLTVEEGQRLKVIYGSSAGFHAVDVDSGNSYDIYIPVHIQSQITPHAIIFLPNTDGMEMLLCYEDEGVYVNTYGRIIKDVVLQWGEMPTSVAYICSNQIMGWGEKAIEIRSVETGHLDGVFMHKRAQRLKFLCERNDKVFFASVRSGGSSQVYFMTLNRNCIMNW
Sequence of FGFR1(h) (P11362 22-822): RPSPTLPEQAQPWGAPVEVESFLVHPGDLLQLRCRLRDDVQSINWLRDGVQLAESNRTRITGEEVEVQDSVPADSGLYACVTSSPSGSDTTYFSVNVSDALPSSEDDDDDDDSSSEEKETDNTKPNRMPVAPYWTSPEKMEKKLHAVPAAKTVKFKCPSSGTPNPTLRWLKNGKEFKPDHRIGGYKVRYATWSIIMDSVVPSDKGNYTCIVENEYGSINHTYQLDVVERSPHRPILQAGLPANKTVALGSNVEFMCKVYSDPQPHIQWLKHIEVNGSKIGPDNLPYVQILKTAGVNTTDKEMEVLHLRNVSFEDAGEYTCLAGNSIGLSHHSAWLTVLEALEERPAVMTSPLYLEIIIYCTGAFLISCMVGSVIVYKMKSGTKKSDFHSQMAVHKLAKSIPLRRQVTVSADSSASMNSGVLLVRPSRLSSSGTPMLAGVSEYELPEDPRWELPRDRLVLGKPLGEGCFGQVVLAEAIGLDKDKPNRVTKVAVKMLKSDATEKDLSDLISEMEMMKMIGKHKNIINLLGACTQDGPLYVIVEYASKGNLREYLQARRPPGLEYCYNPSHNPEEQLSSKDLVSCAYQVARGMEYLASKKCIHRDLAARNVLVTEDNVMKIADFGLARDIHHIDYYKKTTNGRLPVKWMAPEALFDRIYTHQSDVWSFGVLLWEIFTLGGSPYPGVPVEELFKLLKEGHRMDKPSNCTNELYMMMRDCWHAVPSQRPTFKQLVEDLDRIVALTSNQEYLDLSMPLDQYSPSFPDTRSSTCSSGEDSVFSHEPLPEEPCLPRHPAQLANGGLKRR
Sequence of c-Met (P08581 25-1390): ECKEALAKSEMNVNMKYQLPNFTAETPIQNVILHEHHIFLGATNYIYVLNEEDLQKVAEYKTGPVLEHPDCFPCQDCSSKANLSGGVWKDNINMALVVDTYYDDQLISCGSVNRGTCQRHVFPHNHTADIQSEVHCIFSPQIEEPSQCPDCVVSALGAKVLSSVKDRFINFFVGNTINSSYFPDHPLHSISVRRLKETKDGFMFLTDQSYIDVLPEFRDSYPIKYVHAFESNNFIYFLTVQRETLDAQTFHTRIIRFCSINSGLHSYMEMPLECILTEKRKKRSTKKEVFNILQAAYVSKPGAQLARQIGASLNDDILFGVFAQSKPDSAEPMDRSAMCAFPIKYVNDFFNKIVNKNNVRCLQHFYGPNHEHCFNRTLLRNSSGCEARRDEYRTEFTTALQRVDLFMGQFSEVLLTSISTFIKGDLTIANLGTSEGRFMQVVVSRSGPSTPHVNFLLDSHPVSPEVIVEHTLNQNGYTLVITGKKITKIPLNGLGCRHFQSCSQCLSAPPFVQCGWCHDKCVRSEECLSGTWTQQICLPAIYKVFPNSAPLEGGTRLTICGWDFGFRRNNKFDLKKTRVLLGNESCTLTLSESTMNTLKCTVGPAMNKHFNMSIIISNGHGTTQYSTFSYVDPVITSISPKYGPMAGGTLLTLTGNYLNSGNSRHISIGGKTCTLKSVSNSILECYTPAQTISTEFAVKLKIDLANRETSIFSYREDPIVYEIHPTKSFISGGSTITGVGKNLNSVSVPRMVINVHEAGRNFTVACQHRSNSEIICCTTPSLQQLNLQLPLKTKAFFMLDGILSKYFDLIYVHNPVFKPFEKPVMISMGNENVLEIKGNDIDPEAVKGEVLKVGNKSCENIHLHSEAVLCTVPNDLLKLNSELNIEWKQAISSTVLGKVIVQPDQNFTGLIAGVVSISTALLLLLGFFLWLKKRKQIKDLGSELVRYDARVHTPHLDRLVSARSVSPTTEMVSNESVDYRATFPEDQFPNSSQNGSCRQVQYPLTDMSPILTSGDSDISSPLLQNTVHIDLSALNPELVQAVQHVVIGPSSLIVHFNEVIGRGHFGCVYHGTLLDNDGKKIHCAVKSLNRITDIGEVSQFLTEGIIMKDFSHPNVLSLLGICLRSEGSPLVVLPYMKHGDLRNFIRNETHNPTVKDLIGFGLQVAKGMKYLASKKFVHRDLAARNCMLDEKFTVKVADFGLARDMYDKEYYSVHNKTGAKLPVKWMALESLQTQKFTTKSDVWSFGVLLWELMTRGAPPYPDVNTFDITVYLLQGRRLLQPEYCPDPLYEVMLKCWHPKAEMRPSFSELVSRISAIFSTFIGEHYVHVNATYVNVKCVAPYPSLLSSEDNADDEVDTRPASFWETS
Sequence of FGFR4(h) (P22455 22-802): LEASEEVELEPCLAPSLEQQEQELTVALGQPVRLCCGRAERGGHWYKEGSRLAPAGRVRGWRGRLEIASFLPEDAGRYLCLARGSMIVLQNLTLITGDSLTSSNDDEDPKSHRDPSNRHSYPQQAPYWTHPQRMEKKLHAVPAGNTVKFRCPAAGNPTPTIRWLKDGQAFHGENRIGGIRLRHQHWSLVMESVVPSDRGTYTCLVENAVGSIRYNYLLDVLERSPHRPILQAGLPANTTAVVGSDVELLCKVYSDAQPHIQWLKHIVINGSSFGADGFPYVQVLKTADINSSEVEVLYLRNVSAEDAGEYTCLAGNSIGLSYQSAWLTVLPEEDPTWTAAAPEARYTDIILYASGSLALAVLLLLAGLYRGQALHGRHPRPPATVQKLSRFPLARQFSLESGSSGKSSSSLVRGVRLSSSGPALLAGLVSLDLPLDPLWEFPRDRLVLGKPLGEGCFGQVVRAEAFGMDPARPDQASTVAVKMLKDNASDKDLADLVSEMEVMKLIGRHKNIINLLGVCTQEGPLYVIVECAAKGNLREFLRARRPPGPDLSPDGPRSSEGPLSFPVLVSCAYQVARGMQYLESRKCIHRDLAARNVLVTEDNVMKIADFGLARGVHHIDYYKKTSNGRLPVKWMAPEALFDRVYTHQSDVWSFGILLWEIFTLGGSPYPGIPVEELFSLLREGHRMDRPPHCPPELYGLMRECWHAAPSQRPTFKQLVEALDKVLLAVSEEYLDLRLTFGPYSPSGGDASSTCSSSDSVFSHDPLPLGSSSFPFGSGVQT

Structure (SMILES): COc1cc2nccc(Oc3ccc(NC(=S)NC4CC4)c(Cl)c3F)c2cc1C(N)=O [Comparative Compound 2]
IC50 (KDR(h); read-out: KDR(h) IC50, Table 2, ATP 10 μM): 7 nM
IC50 (Lck(h); read-out: Lck(h) IC50, Table 2, ATP 10 μM): 252 nM
IC50 (TNIK(h); read-out: TNIK(h) IC50, Table 2, ATP 10 μM): 118 nM
IC50 (Flt1(h); read-out: Flt1(h) IC50, Table 2, ATP 10 μM): 31 nM
IC50 (Flt4(h)): 8 nM
IC50 (MINK(h); read-out: MINK(h) IC50, Table 2, ATP 10 μM): 55 nM
IC50 (FGFR1(h); read-out: FGFR1(h) IC50, Table 2, ATP 5 μM): 69 nM
IC50 (FGFR2(h)): 15 nM
IC50 (PDGFRβ(h); read-out: PDGFRβ(h) IC50, Table 2, ATP 10 μM): 31 nM
IC50 (Aurora-A(h); read-out: Aurora-A(h) IC50, Table 2, ATP 10 μM): 262 nM

Structure (SMILES): COc1cc2nccc(Oc3cc(F)c(NC(=O)NC4CC4)cc3F)c2cc1C(N)=O [Comparative Compound 3]
IC50 (c-Met; [4]): > 10000 nM
IC50 (Abl(h)): 817 nM
IC50 (FGFR1(h)): 160 nM
IC50 (FGFR4(h)): 509 nM

Structure (SMILES): COc1cc2nccc(Oc3ccc(NC(=O)NC4CC4)c(F)c3F)c2cc1C(N)=O [Comparative Compound 4]
IC50 (c-Met; [4]): 79.8 nM
IC50 (Abl(h)): 292 nM
IC50 (FGFR1(h)): 31 nM
IC50 (FGFR4(h)): 108 nM

Structure (SMILES): COc1cc2nccc(Oc3cc(Cl)c(NC(=O)NC4CC4)cc3F)c2cc1C(N)=O [Comparative Compound 5]
IC50 (c-Met; [4]): 32 nM
IC50 (Abl(h)): 207 nM
IC50 (FGFR1(h)): 89 nM
IC50 (FGFR4(h)): 137 nM

Results, then the compound that gave them:

time to peak concentration [1]: 1.25 h
AUC(0-t) [1]: 44.5 µM·h
bioavailability [1]: 58.7%
Cmax [1]: 10.1 µM
Vd [2]: 0.407 L/kg
AUC(0-t) [2]: 15.1 µM·h
half-life [2]: 2.53 h
clearance [2]: 2.6 mL/min/kg
IC50 (c-Met; c-Met IC50, Table 2, ATP 10 μM): 598 nM
IC50 (Lck(h)): 69 nM
IC50 (TNIK(h)): 91 nM
IC50 (Flt1(h)): 13 nM
IC50 (Flt4(h)): 3 nM
IC50 (MINK(h)): 359 nM
IC50 (cKit(h)): 78 nM
IC50 (FGFR1(h)): 76.6 nM
IC50 (FGFR2(h)): 14 nM
IC50 (FGFR3(h)): 132 nM
IC50 (FGFR4(h)): 1120 nM
IC50 (PDGFRβ(h)): 275 nM
IC50 (cKit(V560G)(h)): 596 nM
Structure (SMILES): COc1cc2nccc(Oc3ccc(NC(=O)NC4CC4)c(Cl)c3)c2cc1C(N)=O [Comparative Compound 1, Lovatinib]

IC50 (c-Met; [4]): 282 nM
IC50 (Abl(h)): 2210 nM
IC50 (FGFR1(h)): 1740 nM
IC50 (FGFR4(h)): 4560 nM
Structure (SMILES): COc1cc2nccc(Oc3ccc(NC(=O)NC4CC4)c(F)c3)c2cc1C(N)=O [Comparative Compound 6]

IC50 (c-Met; [4]): > 10000 nM
IC50 (FGFR1(h)): 54 nM
IC50 (FGFR4(h)): 1110 nM
Structure (SMILES): COc1cc2nccc(Oc3cc(F)c(NC(=O)NC4CC4)c(Cl)c3)c2cc1C(N)=O [Comparative Compound 7]

IC50 (c-Met; c-Met IC50, Table 2, ATP 10 μM): 99.8 nM
IC50 (c-Met; [4]): 45.6 nM
activity on c-Met increased, compared with Comparative Compound 1 (c-Met; from Table 2): 5 times
IC50 (Abl(h)): 7 nM
activity on ABL improved, compared with Comparative Compound 2 (Abl(h); from Table 2): ~70 times
activity on ABL increased, compared with Comparative Compound 1 (Abl(h); from Table 2): 5 times
IC50 (KDR(h)): 9 nM
IC50 (Lck(h)): 43 nM
IC50 (TNIK(h)): 14 nM
activity on TNIK improved, compared with Comparative Compound 2 (TNIK(h); from Table 2): 8 times
activity on TNIK increased, compared with Comparative Compound 1 (TNIK(h); from Table 2): 6.5 times
IC50 (Flt1(h)): 10 nM
IC50 (Flt4(h)): 3 nM
IC50 (MINK(h)): 48 nM
IC50 (cKit(h)): 68 nM
IC50 (FGFR1(h)): 9 nM
activity on FGFR1 increased, compared with Comparative Compound 1 (FGFR1(h); from Table 2): 8 times
IC50 (FGFR2(h)): 6 nM
activity on FGFR2 increased, compared with Comparative Compound 1 (FGFR2(h); from Table 2): 2 times
IC50 (FGFR3(h)): 26 nM
activity on FGFR3 increased, compared with Comparative Compound 1 (FGFR3(h); from Table 2): 5 times
IC50 (FGFR4(h)): 92 nM
activity on FGFR4 increased, compared with Comparative Compound 1 (FGFR4(h); from Table 2): 12 times
IC50 (PDGFRα(h)): 120 nM
IC50 (PDGFRβ(h)): 226 nM
IC50 (Aurora-A(h)): 2080 nM
IC50 (cKit(V560G)(h)): 262 nM
Structure (SMILES): COc1cc2nccc(Oc3ccc(NC(=O)NC4CC4)c(Cl)c3F)c2cc1C(N)=O [Embodiment 1B]

time to peak concentration ([3]; intragastric, 5 mg/kg): 0.5 h
bioavailability ([3]; mouse, plasma, po, intragastric, 5 mg/kg): 144%
AUC(0-t) ([3]; mouse, plasma, po, intragastric, 5 mg/kg, read-out: AUC0-last): 24.9 µM·h
Cmax ([3]; mouse, plasma, po, intragastric, 5 mg/kg, read-out: peak concentration (Cmax)): 9.83 µM
Vd ([3]; mouse, plasma, intravenous injection, 1.0 mg/kg, read-out: apparent volume of distribution at steady state (Vdss)): 1.48 L/kg
AUC(0-t) ([3]; mouse, plasma, intravenous injection, 1.0 mg/kg, read-out: area under the plasma concentration-time curve (AUC0-last)): 3.21 µM·h
half-life ([3]; mouse, plasma, intravenous injection, 1.0 mg/kg, read-out: elimination half-life (T1/2) (converted)): 2.68 h
clearance ([3]; mouse, plasma, intravenous injection, 1.0 mg/kg, read-out: plasma clearance (CL)): 11 mL/min/kg
time to peak concentration [1]: 0.375 h
AUC(0-t) [1]: 71.1 µM·h
bioavailability [1]: 60.8%
Cmax [1]: 19.6 µM
AUC0-last increased, compared with Comparative Compound 1 ([1]; rats, oral absorption): 27%
Vd [2]: 0.259 L/kg
AUC(0-t) [2]: 23.4 µM·h
half-life [2]: 2.64 h
clearance [2]: 1.6 mL/min/kg
AUC0-last increased, compared with Comparative Compound 1 [2, 5]: 55%
plasma clearance reduced, compared with Comparative Compound 1 [2, 5]: ~38%
Structure (SMILES): COc1cc2nccc(Oc3ccc(NC(=O)NC4CC4)c(Cl)c3F)c2cc1C(N)=O [Embodiment 1]
